Experimental data taken from patent US20230109801A1 (Blue Oak Pharmaceuticals, Inc., priority 2020, published 2023).
Structures can show the parent of a compound that is named as a salt.

Test system: mice
Experiment: SmartCube in vivo neuropharmacological behavioral assay
Settings: for minimal effective dose: Mus musculus, ip, dose having 50% or more total activity in SmartCube, i.p., read-out: MED (minimal effective dose); for AD: antidepressant, percent probability / AG: analgesic, percent probability / AP: antipsychotic, percent probability / AX: anxiolytic, percent probability / CE: cognitive enhancer, percent probability / HA: hallucinogenic, percent probability / MS: mood stabilizer, percent probability / PS, percent probability / SD: sedative hypnotic, percent probability / SE: side effects, percent probability / UN: uncharacterized CNS activity, percent probability / XG: anxiogenic, percent probability: SmartCube, i.p. 15 min before test, at the MED
Method in brief: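 Mice dosed i.p. with compound in Pharmasolve (NMP) 15 min before automated video capture of behavior; doses e.g. 0.3–30 mg/kg. Behavioral signature compared with reference-drug classes, giving per-class probability (0–100, 0 = LOQ); MED = lowest dose with ≥50% total activity.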

Row | SMILES | minimal effective dose | AD: antidepressant, percent probability | AG: analgesic, percent probability | AP: antipsychotic, percent probability | AX: anxiolytic, percent probability | CE: cognitive enhancer, percent probability | HA: hallucinogenic, percent probability | MS: mood stabilizer, percent probability | PS, percent probability | SD: sedative hypnotic, percent probability | SE: side effects, percent probability | UN: uncharacterized CNS activity, percent probability | XG: anxiogenic, percent probability
1 | COc1cccc2c1C1CCC2N1C(C)C (stereo not drawn) [Compound 18, 3-Methoxy-11-(propan-2-yl)-11-azatricyclo[6.2.1.0^2,7]undeca-2,4,6-triene hydrochloride] | 10 to 30 mg/kg | ++ (5% ≤ X < 25%) | + (LOQ ≤ X < 5%) | + (LOQ ≤ X < 5%) | ++ (5% ≤ X < 25%) | ++ (5% ≤ X < 25%) | + (LOQ ≤ X < 5%) | + (LOQ ≤ X < 5%) | + (LOQ ≤ X < 5%) | ++ (5% ≤ X < 25%) | +++ (25% ≤ X < 50%) | + (LOQ ≤ X < 5%) | + (LOQ ≤ X < 5%)
2 | CC(C)N1C2C=CC1c1cc(F)c(F)cc12 [Compound 6, 4,5-Difluoro-11-(propan-2-yl)-11-azatricyclo[6.2.1.0^2,7]undeca-2,4,6,9-tetraene hydrochloride] | > 30 mg/kg | ++ (5% ≤ X < 25%) | ++++ (50% ≤ X <1 00%) | + (LOQ ≤ X < 5%) | + (LOQ ≤ X < 5%) | + (LOQ ≤ X < 5%) | + (LOQ ≤ X < 5%) | + (LOQ ≤ X < 5%) | ++ (5% ≤ X < 25%) | + (LOQ ≤ X < 5%) | + (LOQ ≤ X < 5%) | + (LOQ ≤ X < 5%) | + (LOQ ≤ X < 5%)
3 | CC(C)N1C2C=CC1c1c(Cl)cccc12 (stereo not drawn) [Compound 12, 3-Chloro-11-(propan-2-yl)-11-azatricyclo[6.2.1.0^2,7]undeca-2,4,6,9-tetraene hydrochloride] | > 30 mg/kg | + (LOQ ≤ X < 5%) | + (LOQ ≤ X < 5%) | + (LOQ ≤ X < 5%) | +++ (25% ≤ X < 50%) | + (LOQ ≤ X < 5%) | + (LOQ ≤ X < 5%) | + (LOQ ≤ X < 5%) | ++ (5% ≤ X < 25%) | + (LOQ ≤ X < 5%) | + (LOQ ≤ X < 5%) | + (LOQ ≤ X < 5%) | + (LOQ ≤ X < 5%)
4 | CC1=C(C)C2NC1c1ccccc12 [Compound 59, 9,10-Dimethyl-11-azatricyclo[6.2.1.0^2,7]undeca-2,4,6,9-tetraene hydrochloride] | 10 to 30 mg/kg | ++++ (50% ≤ X <1 00%) | + (LOQ ≤ X < 5%) | + (LOQ ≤ X < 5%) | ++ (5% ≤ X < 25%) | ++ (5% ≤ X < 25%) | ++ (5% ≤ X < 25%) | + (LOQ ≤ X < 5%) | + (LOQ ≤ X < 5%) | + (LOQ ≤ X < 5%) | + (LOQ ≤ X < 5%) | + (LOQ ≤ X < 5%) | + (LOQ ≤ X < 5%)
5 | CC(C)N1C2CCC1c1cc(Cl)ccc12 (stereo not drawn) [Compound 28, 4-Chloro-11-(propan-2-yl)-11-azatricyclo[6.2.1.0^2,7]undeca-2,4,6-triene hydrochloride] | > 30 mg/kg | +++ (25% ≤ X < 50%) | + (LOQ ≤ X < 5%) | + (LOQ ≤ X < 5%) | ++ (5% ≤ X < 25%) | + (LOQ ≤ X < 5%) | + (LOQ ≤ X < 5%) | + (LOQ ≤ X < 5%) | + (LOQ ≤ X < 5%) | + (LOQ ≤ X < 5%) | ++ (5% ≤ X < 25%) | ++ (5% ≤ X < 25%) | + (LOQ ≤ X < 5%)
6 | CC(C)N1C2C=CC1c1ccccc12 [Compound 53, 11-(Propan-2-yl)-11-azatricyclo[6.2.1.0^2,7]undeca-2,4,6,9-tetraene hydrochloride] | 10 to 30 mg/kg | ++ (5% ≤ X < 25%) | ++ (5% ≤ X < 25%) | + (LOQ ≤ X < 5%) | ++ (5% ≤ X < 25%) | + (LOQ ≤ X < 5%) | + (LOQ ≤ X < 5%) | + (LOQ ≤ X < 5%) | ++ (5% ≤ X < 25%) | + (LOQ ≤ X < 5%) | + (LOQ ≤ X < 5%) | ++ (5% ≤ X < 25%) | + (LOQ ≤ X < 5%)
7 | CC/C=C/CN1C2CCC1c1ccccc12 [Compound 10, 11-[(2E)-Pent-2-en-1-yl]-11-azatricyclo[6.2.1.0^2,7]undeca-2,4,6-triene hydrochloride] | > 30 mg/kg | + (LOQ ≤ X < 5%) | + (LOQ ≤ X < 5%) | + (LOQ ≤ X < 5%) | ++ (5% ≤ X < 25%) | + (LOQ ≤ X < 5%) | + (LOQ ≤ X < 5%) | + (LOQ ≤ X < 5%) | + (LOQ ≤ X < 5%) | + (LOQ ≤ X < 5%) | + (LOQ ≤ X < 5%) | + (LOQ ≤ X < 5%) | + (LOQ ≤ X < 5%)
8 | Clc1cccc2c1C1CCC2N1 (stereo not drawn) [Compound 13, 3-Chloro-11-azatricyclo[6.2.1.0^2,7]undeca-2,4,6-triene hydrochloride] | > 30 mg/kg | + (LOQ ≤ X < 5%) | + (LOQ ≤ X < 5%) | + (LOQ ≤ X < 5%) | ++ (5% ≤ X < 25%) | ++ (5% ≤ X < 25%) | + (LOQ ≤ X < 5%) | + (LOQ ≤ X < 5%) | + (LOQ ≤ X < 5%) | + (LOQ ≤ X < 5%) | + (LOQ ≤ X < 5%) | +++ (25% ≤ X < 50%) | + (LOQ ≤ X < 5%)
9 | CC(C)N1C2CCC1c1c(F)ccc(F)c12 [Compound 34, 3,6-Difluoro-11-(propan-2-yl)-11-azatricyclo[6.2.1.0^2,7]undeca-2,4,6-triene hydrochloride] | > 30 mg/kg | + (LOQ ≤ X < 5%) | + (LOQ ≤ X < 5%) | + (LOQ ≤ X < 5%) | + (LOQ ≤ X < 5%) | + (LOQ ≤ X < 5%) | + (LOQ ≤ X < 5%) | + (LOQ ≤ X < 5%) | + (LOQ ≤ X < 5%) | + (LOQ ≤ X < 5%) | + (LOQ ≤ X < 5%) | + (LOQ ≤ X < 5%) | + (LOQ ≤ X < 5%)
10 | CC(C)N1C2CCC1c1ccccc12 [Compound 42, 11-(Propan-2-yl)-11-azatricyclo[6.2.1.0^2,7]undeca-2,4,6-triene hydrochloride] | 10 to 30 mg/kg | ++ (5% ≤ X < 25%) | ++ (5% ≤ X < 25%) | + (LOQ ≤ X < 5%) | + (LOQ ≤ X < 5%) | + (LOQ ≤ X < 5%) | ++ (5% ≤ X < 25%) | + (LOQ ≤ X < 5%) | +++ (25% ≤ X < 50%) | + (LOQ ≤ X < 5%) | + (LOQ ≤ X < 5%) | ++ (5% ≤ X < 25%) | + (LOQ ≤ X < 5%)
11 | CC(C)N1C2CCC1c1cc(F)c(F)cc12 [Compound 8, 4,5-difluoro-11-(propan-2-yl)-11-azatricyclo[6.2.1.0^2,7]undeca-2(7),3,5-triene hydrochloride] | 10 to 30 mg/kg | + (LOQ ≤ X < 5%) | ++ (5% ≤ X < 25%) | + (LOQ ≤ X < 5%) | ++ (5% ≤ X < 25%) | + (LOQ ≤ X < 5%) | + (LOQ ≤ X < 5%) | + (LOQ ≤ X < 5%) | + (LOQ ≤ X < 5%) | ++ (5% ≤ X < 25%) | ++++ (50% ≤ X <1 00%) | + (LOQ ≤ X < 5%) | + (LOQ ≤ X < 5%)
12 | CC1C(C)C2c3ccccc3C1N2C(C)C (stereo not drawn) [Compound 49, 9,10-Dimethyl-11-(propan-2-yl)-11-azatricyclo[6.2.1.0^2,7]undeca-2,4,6-triene hydrochloride] | 10 to 30 mg/kg | – | – | – | – | – | – | – | – | – | – | – | –
